Measured values published in PMC6925188, “PBRM1 acts as a p53 lysine-acetylation reader to suppress renal tumor growth” (Nature Communications, 2019).

How the values were obtained:
[1] = system: endogenous PBRM1 and p53; assay: Endogenous p53 immunoprecipitation, kidney cancer cell lines; format: cell-based; details: ACHN, Caki-1 and Ren-01; 50 μM, 8 h
Experimental: For endogenous p53 immunoprecipitations, cell pellets were lysed in EBC buffer with protease and phosphatase inhibitors, 2 μM TSA and 10 mM NAM. Lysates (approximately 2 mg of total protein) were incubated with 2 μg p53 antibody (DO-1) overnight at 4 °C followed by incubation with protein A/G plus Sepharose (sc-2003, Santa Cruz Biotechnology) for 2 h. Beads were washed with EBC buffer four times, mixed with 1X SDS loading buffer (1% mercaptoethanol, 0.01% Bromophenol blue, 6% Glycerol, 2% SDS, 50 mM Tris-Cl (pH 6.8)) and analyzed by SDS-PAGE and immunoblot.
Supplementary Figure 1. Endogenous PBRM1 and p53 physically associate in kidney […]
μM) for 8 h and harvested for immunoprecipitation with control IgG and p53 antibodies. The bound PBRM1 and p53 were examined by immunoblots. Source data are provided as a Source […]
(1 picture or pasted object on this page, not shown here)

[2] = system: Ren-01 PBRM1 KO cells; assay: Immunoblot of p53 targets, Ren-01 PBRM1 KO cells; format: cell-based; details: 50 μM etoposide
Experimental: The band intensity of indicated protein was measured with Bio-rad Image Lab 4.1, and the relative ratios were calculated over the signal intensity of Vinculin in the corresponding lanes. c–e. Nude mice xenograft analyses were performed with Ren-01 PBRM1 KO cells expressing GFP (left flank) or PBRM1 (right flank). Representative photographs of a mouse (c, top) and tumors (c, bottom). Tumors were excised and weighed, and data are presented as mean ± SEM (d). p-values were calculated using the paired two-tailed Student’s t-test. Tumors were stained for PBRM1 and p21 expression via IHC (e). Scale bar: 200 μm. f–h Nude mice xenograft analyses were performed with Ren-01 PBRM1 KO cells expressing wild-type PBRM1 (left flank) or the BD4* mutant PBRM1 (right flank). Tumors were excised and weighed, and data are presented as mean ± SEM (g). p-values were calculated using the paired two-tailed Student’s t-test. Representative photographs of a mouse (f, top) and tumors (f, bottom). Tumors were stained for PBRM1 and p21 expression via IHC analysis (h). Scale bar: 200 μm. Source data are provided as a Source Data file.
After washing with ice-cold PBS, cells were scraped on ice and centrifuged at 10,000 × g for 1 min at 4 °C. […]

[3] = system: RCC4 cells; details: 100 μM etoposide
Experimental: Lysates were analyzed by immunoblots. c RCC4 cells with or without p53 KO were transfected with vector or Flag-PBRM1 at the indicated amounts. […] Cells were harvested for RT-qPCR (g) or ChIP followed by qPCR (h). […] Representative data is shown in i. Quantification of cell cycle phase is shown in j. Source data are provided as a Source Data file.
After washing with ice-cold PBS, cells were scraped on ice and centrifuged at 10,000 × g for 1 min at 4 °C. For immunoblot analysis, cell pellets were lysed in 1% SDS containing a protease inhibitor cocktail followed by sonication with a FB50 sonic dismembrator (Fisher Scientific) at 20% amplitude for 15 s twice. After centrifuging for 10 min at 14,000 × g, the supernatants were combined with 5X SDS loading buffer (5% mercaptoethanol, 0.05% Bromophenol blue, 30% glycerol, 10% SDS, 250 mM Tris-HCl (pH 6.8)), boiled for 5 min and used in SDS-PAGE. After standard western blot procedures, the blots were developed using the ImageQuant LAS 4000 (GE healthcare Life Sciences) or ChemiDoc MP Imaging System (Bio-rad) with HyGLO™ Chemiluminescent HRP Detection Reagent (E2500, Denville Scientific) or Immobilon™ Western Chemiluminescent HRP Substrate (WBKLS0500, Millipore). […]
the indicated times. Lysates were analyzed via immunoblots. b. […]
were analyzed by immunoblots. c. […]
Lysates were analyzed via immunoblots. e. […]
Lysates were analyzed via immunoblots. f, g, h. […]

COc1cc([C@@H]2c3cc4c(cc3[C@@H](O[C@@H]3O[C@@H]5CO[C@@H](C)O[C@H]5[C@H](O)[C@H]3O)[C@H]3COC(=O)[C@H]23)OCO4)cc(OC)c1O [Etoposide]
endogenous PBRM1 associated with endogenous p53 [1]: increased endogenous p53 associated with more endogenous PBRM1
expression of p53 downstream targets after DNA damage, wild-type vs BD4* PBRM1 [2]: rescued by wild-type but not BD4* mutant PBRM1
p21 enhancement by PBRM1 BD4* mutant after p53 activation [3]: failed to enhance p21 expression
